Assay results: DBAASP
In brackets after ≈: the same amount, converted by molar mass.

Experiments:
Experiment in all cases: ≥ marks a high value that may be exact or a test limit, other limits are often not marked, values filed in µg/mL are converted to µM
[1] = test system: Staphylococcus aureus Cowan 1
[2] = test system: Leishmania major MHOM/IL/67/JERICHO-II
[3] = test system: Escherichia coli HB101
[4] = test system: Staphylococcus aureus ATCC 9144
[5] = test system: Escherichia coli ATCC 23506
[6] = test system: Escherichia coli ATCC 25922
[7] = test system: Candida albicans ATCC 10231
[8] = test system: Aspergillus niger ATCC 16404
[9] = test system: Pseudomonas aeruginosa ATCC 9027
[10] = test system: Klebsiella pneumoniae ATCC 700603
[11] = test system: Streptococcus pneumoniae ATCC 49619
[12] = test system: Enterococcus faecalis PCM 2673
[13] = test system: Candida glabrata ATCC 15126
[14] = test system: Staphylococcus aureus ATCC 25923
[15] = test system: Escherichia coli CPCC 100521
[16] = test system: Candida albicans CPCC 400416
[17] = test system: Staphylococcus aureus CPCC 100520
[18] = test system: Candida albicans 08030401
[19] = test system: Candida albicans 08032815
[20] = test system: Candida albicans 08022821
[21] = test system: Candida albicans ATCC 2002
[22] = test system: Shigella dysenteriae
[23] = test system: Staphylococcus aureus ATCC 2592
[24] = test system: Candida albicans 08030102
[25] = test system: Pseudomonas aeruginosa H103
[26] = test system: Staphylococcus aureus C623
[27] = test system: Candida albicans C627
[28] = test system: Pseudomonas aeruginosa 213
[29] = test system: Pseudomonas aeruginosa LES400
[30] = test system: Enterococcus faecium mic80
[31] = test system: Escherichia coli ESBL 63103
[32] = test system: Bacillus cereus ATCC 11778
[33] = test system: Serratia marcescens ATCC 21202
[34] = test system: Salmonella enterica subsp. enterica serovar Enteritidis ATCC 13076
[35] = test system: Pseudomonas aeruginosa ATCC 27853
[36] = test system: Staphylococcus aureus ATCC 29213
[37] = test system: Streptococcus pyogenes ATCC 19615

SMILES: CSCC[C@H](NC(=O)[C@@H](NC(=O)[C@H](CCCCN)NC(=O)[C@H](Cc1c[nH]c2ccccc12)NC(=O)[C@H](CC(C)C)NC(=O)[C@H](C)N)[C@@H](C)O)C(=O)N[C@@H](CC(C)C)C(=O)N[C@@H](CCCCN)C(=O)N[C@@H](CCCCN)C(=O)N[C@@H](CC(C)C)C(=O)NCC(=O)N[C@H](C(N)=O)[C@@H](C)O [ALWKTMLKKLGT]
- MIC [1]: ≥ 54 µM
- MIC [2]: ≥ 54.2 µM
- MIC [3]: ≥ 54 µM

SMILES: CC[C@H](C)[C@H](NC(=O)[C@H](C)NC(=O)[C@H](CCC(=O)O)NC(=O)[C@H](CO)NC(=O)[C@@H](N)Cc1ccccc1)C(=O)N[C@@H](CCCCN)C(=O)N[C@@H](CCCCN)C(=O)N[C@H](C(=O)N[C@H](C(=O)N[C@@H](CC(=O)O)C(=O)N[C@@H](Cc1ccccc1)C(=O)N[C@@H](CC(C)C)C(=O)NCC(N)=O)[C@@H](C)CC)[C@@H](C)CC [FSEAIKKIIDFLG]
- MIC [4]: ≥ 173 µM
- MIC [5]: ≥ 173 µM
- MIC [6]: 173 µM (≈ 256 µg/mL)
- MIC [7]: > 173 µM
- MIC [8]: ≥ 173 µM
- MIC [9]: > 173 µM
- MIC [10]: 86.4 µM (≈ 128 µg/mL)
- MIC [11]: ≥ 173 µM
- MIC [12]: ≥ 173 µM
- MIC [13]: ≥ 173 µM
- MIC [14]: > 173 µM

SMILES: CC[C@H](C)[C@H](N)C(=O)N[C@H](C(=O)NCC(=O)N1CCC[C@H]1C(=O)N[C@H](C(=O)N[C@@H](CC(C)C)C(=O)NCC(=O)N[C@@H](CC(C)C)C(=O)N[C@H](C(=O)NCC(=O)N[C@@H](CCCCN)C(=O)N[C@@H](C)C(=O)N[C@@H](CC(C)C)C(=O)NCC(=O)NCC(=O)N[C@@H](CC(C)C)C(=O)N[C@@H](CC(C)C)C(N)=O)[C@@H](C)CC)C(C)C)[C@@H](C)CC [IIGPVLGLIGKALGGLL]
- MIC [15]: ≥ 639 µM
- MIC [16]: ≥ 160 µM
- MIC [17]: ≥ 160 µM

SMILES: CC[C@H](C)[C@H](NC(=O)[C@H](CCC(N)=O)NC(=O)[C@H](CCCCN)NC(=O)[C@H](Cc1ccc(O)cc1)NC(=O)[C@H](CC(C)C)NC(=O)[C@H](CCC(N)=O)NC(=O)[C@@H]1CCCN1C(=O)[C@H](CCSC)NC(=O)[C@H](CCCCN)NC(=O)[C@@H](NC(=O)[C@H](CCCN=C(N)N)NC(=O)[C@H](CCCCN)NC(=O)[C@@H](NC(=O)[C@H](CCSC)NC(=O)[C@@H](NC(=O)[C@H](CC(C)C)NC(=O)[C@@H](NC(=O)[C@@H](N)CCCN=C(N)N)[C@@H](C)CC)[C@@H](C)O)[C@@H](C)O)C(C)C)C(=O)N[C@H](C(=O)N[C@H]1CSSC[C@@H](C(=O)O)NC(=O)[C@H]([C@@H](C)O)NC(=O)[C@H](CCCCN)NC(=O)[C@H](Cc2ccccc2)NC(=O)[C@H](CC(C)C)NC(=O)[C@H](CCCN=C(N)N)NC1=O)C(C)C [RILTMTKRVKMPQLYKQIVCRLFKTC]
- MIC [18]: 15.6 µM (≈ 50 µg/mL)
- MIC [6]: 31.3 µM (≈ 99.9 µg/mL)
- MIC [19]: ≥ 62.5 µM
- MIC [20]: 7.81 µM (≈ 25 µg/mL)
- MIC [21]: 3.13 µM (≈ 9.99 µg/mL)
- MIC [22]: 15.6 µM (≈ 50 µg/mL)
- MIC [23]: 15.6 µM (≈ 50 µg/mL)
- MIC [24]: 31.3 µM (≈ 99.9 µg/mL)

SMILES: CC(C)C[C@H](NC(=O)[C@H](CC(C)C)NC(=O)[C@H](CCCN=C(N)N)NC(=O)[C@H](Cc1c[nH]c2ccccc12)NC(=O)[C@H](Cc1c[nH]c2ccccc12)NC(=O)[C@H](CCCN=C(N)N)NC(=O)[C@H](CCCCN)NC(=O)[C@H](Cc1c[nH]c2ccccc12)NC(=O)[C@@H](N)CCCN=C(N)N)C(=O)O [RWKRWWRLL]
- MIC [25]: 22.9 µM (≈ 32 µg/mL)
- MIC [26]: 5.72 µM (≈ 8 µg/mL)
- MIC [27]: 5.72 µM (≈ 8 µg/mL)
- MIC [28]: ≥ 45.7 µM
- MIC [29]: 22.9 µM (≈ 32 µg/mL)
- MIC [30]: 5.72 µM (≈ 8 µg/mL)
- MIC [14]: 11.4 µM (≈ 16 µg/mL)
- MIC [31]: 11.4 µM (≈ 16 µg/mL)

SMILES: CSCC[C@H](NC(=O)[C@H](CO)NC(=O)[C@H](CS)NC(=O)[C@@H](NC(=O)[C@H](CCC(=O)O)NC(=O)[C@H](CC(C)C)NC(=O)[C@H](CC(C)C)NC(=O)[C@@H]1CCCN1C(=O)[C@H](CC(C)C)NC(=O)[C@@H](N)C(C)C)[C@@H](C)O)C(=O)N[C@H](C(=O)N[C@@H](CS)C(=O)N[C@@H](Cc1c[nH]c2ccccc12)C(=O)N[C@@H](CCC(=O)O)C(=O)N[C@@H](CC(N)=O)C(=O)N[C@@H](CC(N)=O)C(=O)N[C@@H](CCC(N)=O)C(=O)N[C@H](C(=O)N[C@@H](Cc1ccccc1)C(=O)NCC(=O)N[C@@H](CCCCN)C(=O)O)[C@@H](C)O)[C@@H](C)O [VLPLLETCSMTCWENNQTFGK]
- MIC [6]: > 41.4 µM
- MIC [32]: ≥ 41.4 µM
- MIC [10]: > 41.4 µM
- MIC [33]: ≥ 41.4 µM
- MIC [34]: ≥ 41.4 µM
- MIC [35]: > 41.4 µM
- MIC [36]: > 41.4 µM
- MIC [37]: ≥ 41.4 µM
